Measurements as given in patent US20230117034A1, “PYRAZOLOTRIAZINES” (Bayer Aktiengesellschaft, priority 2019, published 2023).
pIC50: −log10 of the molar value.

Legend:
CDK9/CycT1 = molecular target: T1, CDK9/CycT1 (Homo sapiens, UniProt P50750); test: CDK9/CycT1 high ATP kinase assay (TR-FRET, 2 mM ATP); format: biochemical; settings: 2 mM ATP (high ATP); median; read-out: CDK9/CyclinT1, 2 mM ATP (high ATP), IC50 (median)
T1 construct: Recombinant full-length His-tagged human CDK9 and CycT1; purchased Life Technologies PV4131; host or cells: insect cells
T1 sequence (P50750 whole entry): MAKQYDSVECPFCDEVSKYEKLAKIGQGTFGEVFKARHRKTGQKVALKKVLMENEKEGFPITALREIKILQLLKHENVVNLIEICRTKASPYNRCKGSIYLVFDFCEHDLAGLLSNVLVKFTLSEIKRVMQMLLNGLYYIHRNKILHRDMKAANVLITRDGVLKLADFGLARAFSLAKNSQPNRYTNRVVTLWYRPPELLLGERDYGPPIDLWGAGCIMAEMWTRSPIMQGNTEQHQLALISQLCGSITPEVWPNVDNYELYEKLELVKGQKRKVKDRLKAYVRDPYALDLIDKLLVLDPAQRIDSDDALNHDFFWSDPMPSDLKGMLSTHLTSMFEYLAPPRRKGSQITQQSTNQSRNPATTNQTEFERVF
T1 sequence (O60563 whole entry partner): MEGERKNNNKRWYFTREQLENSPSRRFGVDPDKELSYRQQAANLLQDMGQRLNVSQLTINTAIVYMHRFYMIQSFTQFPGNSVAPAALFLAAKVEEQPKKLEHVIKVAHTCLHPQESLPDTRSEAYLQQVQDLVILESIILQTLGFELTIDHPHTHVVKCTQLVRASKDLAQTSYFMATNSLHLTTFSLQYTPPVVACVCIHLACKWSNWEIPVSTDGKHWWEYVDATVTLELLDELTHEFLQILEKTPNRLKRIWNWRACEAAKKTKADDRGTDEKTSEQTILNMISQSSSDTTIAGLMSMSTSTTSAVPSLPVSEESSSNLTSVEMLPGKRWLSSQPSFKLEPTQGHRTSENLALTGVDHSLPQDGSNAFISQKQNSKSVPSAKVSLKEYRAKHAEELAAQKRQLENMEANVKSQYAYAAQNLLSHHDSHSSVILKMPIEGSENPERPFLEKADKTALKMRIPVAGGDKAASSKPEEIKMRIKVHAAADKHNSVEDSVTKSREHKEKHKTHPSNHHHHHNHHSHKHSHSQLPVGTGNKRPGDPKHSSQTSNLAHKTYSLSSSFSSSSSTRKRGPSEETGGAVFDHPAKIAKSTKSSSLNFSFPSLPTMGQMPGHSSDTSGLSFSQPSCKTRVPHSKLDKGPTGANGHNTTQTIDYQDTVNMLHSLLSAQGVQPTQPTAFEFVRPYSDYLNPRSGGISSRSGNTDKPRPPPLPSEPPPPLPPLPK
How it was run: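 Full-length His-tagged human CDK9/CycT1 (insect cell, ~0.5 μg/mL) preincubated 15 min at 22 °C with compound in Tris pH 8.0, MgCl2, DTT buffer before reaction with biotinylated peptide substrate at high ATP (2 mM).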

[1] = molecular target: T2, CDK12 (nuclear staining in CAL-120 cells) (Homo sapiens, UniProt Q9NYV4); test: CDK12 nuclear protein level: immunofluorescence/high content analysis (CAL-120); format: cell-based; settings: for DC50: CAL-120 cells, 24 h, immunofluorescence, 50% reduction of nuclear CDK12 staining intensity, median, read-out: CDK12 degradation IF, DC50- [mol/l] (median); for (IC50 CDK12 high ATP) to (Degradation DC50 CDK12) ratio: ratio of IC50 CDK12 high ATP kinase assay to DC50 CDK12 degradation (IF, CAL-120)
T2 construct: endogenous in cells; host or cells: CAL-120 human breast cancer cells (DSMZ ACC 459)
T2 sequence (Q9NYV4 whole entry): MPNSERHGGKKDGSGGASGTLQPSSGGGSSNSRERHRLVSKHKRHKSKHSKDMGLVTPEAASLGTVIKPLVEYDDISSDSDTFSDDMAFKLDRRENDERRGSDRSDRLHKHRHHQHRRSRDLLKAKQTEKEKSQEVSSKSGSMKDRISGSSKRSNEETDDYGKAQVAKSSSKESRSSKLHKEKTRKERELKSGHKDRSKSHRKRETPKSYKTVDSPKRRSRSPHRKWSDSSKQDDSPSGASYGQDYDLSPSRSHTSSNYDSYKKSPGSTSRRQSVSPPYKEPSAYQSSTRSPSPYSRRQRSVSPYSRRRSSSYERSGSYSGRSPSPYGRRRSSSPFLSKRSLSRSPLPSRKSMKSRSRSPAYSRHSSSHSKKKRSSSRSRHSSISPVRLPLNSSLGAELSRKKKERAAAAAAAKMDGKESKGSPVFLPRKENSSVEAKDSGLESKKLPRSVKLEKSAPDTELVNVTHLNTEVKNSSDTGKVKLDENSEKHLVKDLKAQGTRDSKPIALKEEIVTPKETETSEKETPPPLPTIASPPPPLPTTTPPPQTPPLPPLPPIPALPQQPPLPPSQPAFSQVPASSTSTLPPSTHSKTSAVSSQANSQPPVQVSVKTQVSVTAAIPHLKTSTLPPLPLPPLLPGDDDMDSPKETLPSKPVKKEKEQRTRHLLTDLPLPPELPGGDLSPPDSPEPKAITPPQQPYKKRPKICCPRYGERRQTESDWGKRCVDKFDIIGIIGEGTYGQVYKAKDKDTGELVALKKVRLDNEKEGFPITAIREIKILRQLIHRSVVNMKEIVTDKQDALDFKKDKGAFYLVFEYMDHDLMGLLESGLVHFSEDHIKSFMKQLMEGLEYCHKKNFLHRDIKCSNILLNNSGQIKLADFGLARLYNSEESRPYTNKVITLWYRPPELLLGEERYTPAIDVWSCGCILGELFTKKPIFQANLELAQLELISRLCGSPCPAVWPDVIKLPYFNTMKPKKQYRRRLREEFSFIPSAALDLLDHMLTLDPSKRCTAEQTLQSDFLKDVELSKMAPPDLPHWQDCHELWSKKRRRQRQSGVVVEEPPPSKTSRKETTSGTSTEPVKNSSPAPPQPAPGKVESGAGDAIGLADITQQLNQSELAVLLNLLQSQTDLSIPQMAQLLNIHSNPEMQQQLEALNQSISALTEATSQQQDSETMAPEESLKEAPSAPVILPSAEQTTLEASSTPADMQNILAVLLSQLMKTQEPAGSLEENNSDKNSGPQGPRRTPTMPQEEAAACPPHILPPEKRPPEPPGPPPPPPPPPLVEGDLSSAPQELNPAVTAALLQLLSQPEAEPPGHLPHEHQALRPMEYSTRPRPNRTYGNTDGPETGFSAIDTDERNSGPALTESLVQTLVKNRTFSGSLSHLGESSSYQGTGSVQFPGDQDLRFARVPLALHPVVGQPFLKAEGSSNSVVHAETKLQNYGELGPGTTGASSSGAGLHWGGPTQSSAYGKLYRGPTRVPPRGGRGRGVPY
T2 sequence (O75909 whole entry partner): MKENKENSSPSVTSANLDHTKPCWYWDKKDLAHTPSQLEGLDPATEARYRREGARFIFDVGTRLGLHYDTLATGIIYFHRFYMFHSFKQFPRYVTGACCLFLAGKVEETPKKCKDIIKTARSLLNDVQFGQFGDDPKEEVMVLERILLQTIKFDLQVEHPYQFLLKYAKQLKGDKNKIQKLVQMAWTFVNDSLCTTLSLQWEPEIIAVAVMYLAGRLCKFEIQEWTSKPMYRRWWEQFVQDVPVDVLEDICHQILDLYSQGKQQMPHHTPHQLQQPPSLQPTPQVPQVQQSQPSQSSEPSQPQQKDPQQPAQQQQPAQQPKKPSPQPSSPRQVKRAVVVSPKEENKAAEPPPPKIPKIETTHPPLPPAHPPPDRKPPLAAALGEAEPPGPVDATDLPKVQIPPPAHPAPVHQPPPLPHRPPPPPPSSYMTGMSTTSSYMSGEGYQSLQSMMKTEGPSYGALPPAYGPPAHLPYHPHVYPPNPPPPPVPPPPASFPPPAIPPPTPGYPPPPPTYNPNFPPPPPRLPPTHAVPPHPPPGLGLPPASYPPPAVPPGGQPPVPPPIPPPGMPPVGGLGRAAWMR
How it was run: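 CAL-120 cells were treated with compound for 24 h at 37 °C, fixed with PFA and immunostained for CDK12. Nuclear CDK12 intensity was quantified by automated image analysis and normalized to DMSO and control. DC50 is the concentration giving 50% reduction of nuclear staining.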

CDK2/CycE = molecular target: T3, CDK2/CycE (Homo sapiens, UniProt P24941); test: CDK2/CycE kinase assay (TR-FRET, 2 mM ATP); format: biochemical; settings: 2 mM ATP (high ATP); median; read-out: CDK2/CyclinE, 2 mM ATP (high ATP), IC50 (median)
T3 construct: purchased ProQinase GmbH (Freiburg, Germany); host or cells: insect cells (Sf9)
How it was run: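 GST-tagged human CDK2 and CycE from Sf9 cells, about 10 ng/ml, pre-incubated 15 min at 22 °C with compound in Tris/HCl pH 8.0 buffer. Reaction with 2 mM ATP and 0.75 µM biotinylated peptide for 25 min at 22 °C. Phospho-RB antibody TR-FRET (665/620 nm ratio) read after 1 h; data normalised to no-inhibitor and no-enzyme controls.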

| pIC50 (CDK9/CycT1) | DC50 [1] [nM] | (IC50 CDK12 high ATP) to (Degradation DC50 CDK12) ratio [1] | pIC50 (CDK2/CycE) | Structure (SMILES) |
| --- | --- | --- | --- | --- |
| < 4.70 | 18 | 186 | 5.73 | Brc1cnn2c(NCc3nc4ccccc4[nH]3)nc(N3CCCCC3)nc12 [Example 46, N-[(1H-benzimidazol-2-yl)methyl]-8-bromo-2-(piperidin-1-yl)pyrazolo[1,5-a][1,3,5]triazin-4-amine] |
| 6.14 | 3.43 | 224 | 5.97 | N#Cc1cccc(-c2nnc(CNc3nc(N4CCOCC4)nc4c(Br)cnn34)[nH]2)c1 [Example 55, 3-[5-({[8-bromo-2-(morpholin-4-yl)pyrazolo[1,5-a][1,3,5]triazin-4-yl]amino}methyl)-4H-1,2,4-triazol-3-yl]benzonitrile] |
| < 4.70 | 7.03 | >2847 | < 4.70 | CN1CCN(c2nc(NCc3nc4ccccc4[nH]3)n3ncc(C4CC4(F)F)c3n2)CC1 (stereo not drawn) [Example 428, N-(1H-benzimidazol-2-ylmethyl)-8-(2,2-difluorocyclopropyl)-2-(4-methylpiperazin-1-yl)pyrazolo[1,5-a][1,3,5]triazin-4-amine] |
| 5.58 | 41.7 | 147 | 5.64 | Brc1cnn2c(NCc3nnc(-c4ccccc4)[nH]3)nc(N3CCCCC3)nc12 [Example 49, 8-bromo-N-[(5-phenyl-4H-1,2,4-triazol-3-yl)methyl]-2-(piperidin-1-yl)pyrazolo[1,5-a][1,3,5]triazin-4-amine] |
| < 4.70 | 113 | >176 | < 4.70 | Brc1cnn2c(NCc3nc4ccccc4[nH]3)nc(OC3CCOCC3)nc12 [Example 405, N-[(1H-benzimidazol-2-yl)methyl]-8-bromo-2-[(oxan-4-yl)oxy]pyrazolo[1,5-a][1,3,5]triazin-4-amine] |
| < 4.70 | 105 | >191 | < 4.70 | CN1CCN(c2nc(NCc3nc4c(F)c(F)ccc4[nH]3)n3ncc(-c4nccs4)c3n2)CC1 [Example 415, N-[(4,5-difluoro-1H-benzimidazol-2-yl)methyl]-2-(4-methylpiperazin-1-yl)-8-(1,3-thiazol-2-yl)pyrazolo[1,5-a][1,3,5]triazin-4-amine] |

The next lines start with the molecule.

| Structure (SMILES) | pIC50 (CDK9/CycT1) | DC50 [1] [nM] | (IC50 CDK12 high ATP) to (Degradation DC50 CDK12) ratio [1] | pIC50 (CDK2/CycE) |
| --- | --- | --- | --- | --- |
| CC(C)COc1nc(NCc2nc3ccccc3[nH]2)n2ncc(Br)c2n1 [Example 409, N-[(1H-benzimidazol-2-yl)methyl]-8-bromo-2-(2-methylpropoxy)pyrazolo[1,5-a][1,3,5]triazin-4-amine] | < 4.70 | 29.8 | >531 | 4.89 |
| N#Cc1cccc(-c2c[nH]c(CNc3nc(N4CCOCC4)nc4c(Br)cnn34)n2)c1 [Example 42, 3-[2-({[8-bromo-2-(morpholin-4-yl)pyrazolo[1,5-a][1,3,5]triazin-4-yl]amino}methyl)-1H-imidazol-4-yl]benzonitrile] | 6.03 | 1.25 | 324 | 5.99 |
| CCc1cnn2c(NCc3nc4c(OC)cccc4[nH]3)nc(N3CCOCC3)nc12 [Example 433, 8-ethyl-N-[(4-methoxy-1H-benzimidazol-2-yl)methyl]-2-(morpholin-4-yl)pyrazolo[1,5-a][1,3,5]triazin-4-amine] | < 4.70 | 4.32 | 626 | 5.75 |
| COc1ccccc1-c1nnc(CNc2nc(N3CCN(C)CC3)nc3c(C4CC4(F)F)cnn23)[nH]1 (stereo not drawn) [Example 430, 8-(2,2-difluorocyclopropyl)-N-{[5-(2-methoxyphenyl)-4H-1,2,4-triazol-3-yl]methyl}-2-(4-methylpiperazin-1-yl)pyrazolo[1,5-a][1,3,5]triazin-4-amine] | < 4.70 | 25.3 | >789 | < 4.70 |
| CN1CCN(c2nc(NCc3nc4ccccc4[nH]3)n3ncc(CC(F)(F)F)c3n2)CC1 [Example 436, N-[(1H-benzimidazol-2-yl)methyl]-2-(4-methylpiperazin-1-yl)-8-(2,2,2-trifluoroethyl)pyrazolo [1,5-a][1,3,5]triazin-4-amine] | < 4.70 | 14.7 | >1357 | < 4.70 |
| N#Cc1cnn2c(NCc3nc4ccccc4[nH]3)nc(N3CCOCC3)nc12 [Example 43, 4-{[(1H-benzimidazol-2-yl)methyl]amino}-2-(morpholin-4-yl)pyrazolo[1,5-a][1,3,5]triazine-8-carbonitrile] | < 4.70 | 9.58 | >1754 | < 4.70 |
| NCCOCCOCCNc1nc(NCc2nc3ccccc3[nH]2)n2ncc(Br)c2n1 [Example 412, N2-{2-[2-(2-aminoethoxy)ethoxy]ethyl}-N4-[(1H-benzimidazol-2-yl)methyl]-8-bromopyrazolo[1,5-a][1,3,5]triazine-2,4-diamine] | < 4.70 | 77.4 | >74 | < 4.70 |
| CCNc1nc(NCc2ncc(-c3ccccc3)[nH]2)n2ncc(C(C)C)c2n1 [Example 34, N^2-ethyl-N^4-[(5-phenyl-1H-imidazol-2-yl)methyl]-8-(propan-2-yl)pyrazolo[1,5-a][1,3,5]triazine-2,4-diamine] | < 4.70 | 12.7 | >449 | 5.21 |
| CN(C)CCOc1nc(NCc2nc3ccccc3[nH]2)n2ncc(Br)c2n1 [Example 399, N-[(1H-benzimidazol-2-yl)methyl]-8-bromo-2-[2-(dimethylamino)ethoxy]pyrazolo[1,5-a][1,3,5]triazin-4-amine] | < 4.70 | 66 | >303 | < 4.70 |
| CCc1cnn2c(NCc3nc4ccccc4[nH]3)nc(N3CCN(C)CC3)nc12 [Example 434, N-[(1H-benzimidazol-2-yl)methyl]-8-ethyl-2-(4-methylpiperazin-1-yl)pyrazolo[1,5-a][1,3,5] triazin-4-amine] | < 4.70 | 5 | >3530 | 5.20 |
| CN(CC(C)(C)O)c1nc(NCc2nc3c(F)c(F)ccc3[nH]2)n2ncc(C(F)(F)F)c2n1 [Example 402, 1-{[4-{[(4,5-difluoro-1H-benzimidazol-2-yl)methyl]amino}-8-(trifluoromethyl)pyrazolo[1,5-a][1,3,5]triazin-2-yl](methyl)amino}-2-methylpropan-2-ol] | 5.27 | 7.03 | 32 | 5.02 |
| CC1(C)CN(c2nc(NCc3nc4ccccc4[nH]3)n3ncc(Br)c3n2)CCO1 [Example 58, N-[(1H-benzimidazol-2-yl)methyl]-8-bromo-2-(2,2-dimethylmorpholin-4-yl)pyrazolo[1,5-a][1,3,5]triazin-4-amine] | < 4.70 | 26.1 | 246 | 4.97 |
